Test results published in patent US4812481A, “Synergistic combination of amantadiene and selegiline” (Degussa Aktiengesellschaft, priority 1986, dated 1989).

Legend:
[1] = system: akinetic crisis; assay: improvement of the akinetic crisis (critical deteriorations of the Morbus Parkinson); type: in vivo, human; conditions: intravenous amantadine, without or with addition of selegiline
[2] = system: Parkinson's disease; assay: anti-Parkinsonism action in human (Webster scale, disability score); type: in vivo
Text: The effect of the anti-Parkinsonism action is established, for example, by Webster, D. D., Med. Treat. (N.Y.) 5, pp. 257-282, 1968. Here, the different symptoms are assigned and weighted after application of the monosubstance amantadine or the combination:
1. Slowed motor response of the hands
2. Rigor (elevation of the muscle tone)
4. Simultaneous swinging of the upper extremities
10. Ability to stand alone.
An anti-Parkinsonism action is present if the sum of the values resulting from the Webster scale (the so-called disability score) is lower than the initial value without medication (<30). The synergistic effect of the combination results from the following: When selegiline is used in addition, the sum of the disability score is lower than that which would have been achieved if only amantadine had been used and/or the duration of the effectiveness of amantadine is extended.

| SMILES | onset of improvement of the akinetic crisis [1] | anti-Parkinsonism action ([2]; Parkinson's disease, compared to pure amantadine) | improvement of the symptoms of Parkinson (Webster sums) ([2]; early stages of Morbus Parkinsonism) |
| --- | --- | --- | --- |
| NC12CC3CC(CC(C3)C1)C2 [amantadine, 1-amino-adamantane] | relatively slowly setting in improvement of the akinetic crisis |  |  |
| C#CCN(C)[C@H](C)Cc1ccccc1 [selegiline, N-(1-phenyl-2-propyl)-N-methyl-2-propinylamine] |  | almost no anti-Parkinsonism action | does not show sufficient effect in regard to improving the symptoms of the Parkinson symptomatics |
